US10172821B2, “Histone deacetylase inhibitors” (President & Fellows of Harvard College, priority 2006, dated 2019)

Assays:
[1] = Degradation of SAHP in serum; type: in vitro ADME
Procedure: In less than 15 minutes, SAHP is completely degraded.
In less than 2 minutes, SAHP is completely degraded into phenol and the corresponding carboxylic acid.

[2] = system: Transformed lymphocytes derived from involved skin of IL-7 transgenic mice (lymphoproliferative disease similar to human cutaneous T-cell lymphoma); assay: Topical treatment of mice with lymphoproliferative skin disease (CTCL model), histopathologic examination; type: in vivo; conditions: daily, fourteen days of therapy, versus vehicle control, FIG. 14
From the text: FIG. 14. Interleukin-7 is a growth factor for T-cell development, in particular the gamma-delta subset. Transgenic mice overexpressing IL-7 in keratinocytes were developed by the laboratories of Thomas Kupper and Benjamin Rich, using a tissue-specific keratin-14 promoter element. These mice have been reported to develop a characteristic lymphoproliferative skin disease grossly and histologically similar to human cutaneous T-cell lymphoma (CTCL). Transformed lymphocytes derived from involved skin were passaged ex vivo and injected into syngeneic (non-transgenic) mice. After fourteen days, these mice develop a homogeneous lymphoproliferative disease. Two cohorts of five mice were included in a prospective study of topical, daily suberoyl hydroxamic acid phenyl ester (SAHP, also known as SHAPE) versus vehicle control. After fourteen days of therapy, mice were sacrificed and the treated region was dissected for histopathologic examination.

[3] = system: acetylated histones (AcH3K18); assay: Pharmacodynamic effect by immunohistochemical staining for acetylated histones; type: in vivo; conditions: SAHP-treated mice compared to vehicle treated controls; FIG. 15

**Q.** What does the source list for `O=C(CCCCCCC(=O)Oc1ccccc1)NO` [SAHP, suberoyl hydroxamic acid phenyl ester]?
**A.** time until SAHP is completely degraded in serum ([1]; FIG. 6): less than 15 minutes; time until SAHP is completely degraded into phenol and the corresponding carboxylic acid ([1]; more detailed study, FIG. 7): less than 2 minutes; lymphomatous infiltration within the treated window (hematoxylin-eosin staining) [2]: marked reduction in lymphomatous infiltration; AcH3K18 staining (histone hyperacetylation) in treated skin [3]: hyperacetylated histone staining at the margin of compound treatment, with absent nuclear staining in the region of drug response
